≈ marks a conversion by molar mass, not a printed value. Where two headings read alike, the source gives them in different places.
Key:
Type in all cases: cell-based
E. coli K 12 R 55 (GNT) = test: Conventional agar dilution, MIC; conditions: Escherichia coli
Experimental: (§1) The antibacterial activity is determined by the conventional agar dilution method, and the minimal inhibitory concentration (MIC) is expressed in mcg/ml.

P. aeruginosa B = test: Conventional agar dilution, MIC; conditions: Pseudomonas aeruginosa
Experimental: as §1

Proteus mirabilis 525 = test: Conventional agar dilution, MIC
Experimental: as §1

P. aeruginosa 6 = test: Conventional agar dilution, MIC; conditions: Pseudomonas aeruginosa
Experimental: as §1

P. aeruginosa 5 = test: Conventional agar dilution, MIC; conditions: Pseudomonas aeruginosa
Experimental: as §1

Proteus vulgaris = test: Conventional agar dilution, MIC
Experimental: as §1

[1] = tested on: E. coli K 12 R 112 (NPT I); test: Conventional agar dilution, MIC; conditions: Escherichia coli
Experimental: as §1

P. aeruginosa 47823 = test: Conventional agar dilution, MIC; conditions: Pseudomonas aeruginosa
Experimental: as §1

P. sp. V 16 = test: Conventional agar dilution, MIC
Experimental: as §1

P. aeruginosa 4 = test: Conventional agar dilution, MIC; conditions: Pseudomonas aeruginosa
Experimental: as §1

[2] = tested on: Pseudomonas aeruginosa 9229; test: Conventional agar dilution, MIC
Experimental: as §1

[3] = tested on: E. coli K 12 R 118 (NPT II); test: Conventional agar dilution, MIC; conditions: Escherichia coli
Experimental: as §1

[4] = tested on: Staphylococcus aureus 209 P; test: Conventional agar dilution, MIC
Experimental: as §1

P. mirabilis V 15 = test: Conventional agar dilution, MIC; conditions: Proteus mirabilis, V15
Experimental: as §1

P. aeruginosa 19660 = test: Conventional agar dilution, MIC; conditions: Pseudomonas aeruginosa
Experimental: as §1

P. aeruginosa 53585 = test: Conventional agar dilution, MIC; conditions: Pseudomonas aeruginosa
Experimental: as §1

Escherichia coli K 12 = test: Conventional agar dilution, MIC; conditions: K12
Experimental: as §1

P. aeruginosa 53825 = test: Conventional agar dilution, MIC; conditions: Pseudomonas aeruginosa
Experimental: as §1

bacterial strains = test: Antibacterial "in vitro" activity, conventional agar dilution (overall); conditions: in words, compared with neomycin B and paromomycin (1)
Experimental: as §1

| SMILES | MIC (E. coli K 12 R 55 (GNT)) [µg/mL] | MIC (P. aeruginosa B) [µg/mL] | MIC (Proteus mirabilis 525; Proteus mirabilis, 525) [µg/mL] | MIC (P. aeruginosa 6; 6) [µg/mL] | MIC (P. aeruginosa 5; 5) [µg/mL] | MIC (Proteus vulgaris) [µg/mL] | MIC [1] [µg/mL] | MIC (P. aeruginosa 47823; 47823) [µg/mL] | MIC (P. sp. V 16) [µg/mL] | MIC (P. aeruginosa 4; 4) [µg/mL] | MIC ([2]; Pseudomonas aeruginosa, 9229) [µg/mL] | MIC [3] [µg/mL] | MIC ([4]; Staphylococcus aureus, 209P) [µg/mL] | MIC (P. mirabilis V 15) [µg/mL] | MIC (P. aeruginosa 19660; 19660) [µg/mL] | MIC (P. aeruginosa 53585; 53585) [µg/mL] | MIC (Escherichia coli K 12; Escherichia coli) [µg/mL] | MIC (P. aeruginosa 53825; 53825) [µg/mL] | also measured |
| --- | --- | --- | --- | --- | --- | --- | --- | --- | --- | --- | --- | --- | --- | --- | --- | --- | --- | --- | --- |
| NC[C@@H]1O[C@H](O[C@H]2[C@@H](O)[C@H](O[C@@H]3[C@@H](O)[C@H](N)C[C@H](N)[C@H]3O[C@H]3O[C@H](CN)[C@@H](O)[C@H](O)[C@H]3N)O[C@@H]2CO)[C@H](N)[C@@H](O)[C@@H]1O [Neomycin B, neomycin B] | 6.25 (≈ 10.2 µM) | > 100 | 12.5 (≈ 20.3 µM) | 25 (≈ 40.7 µM) | 50 (≈ 81.3 µM) | 25 (≈ 40.7 µM) | > 200 | > 100 | > 100 | 25 (≈ 40.7 µM) | 100 (≈ 163 µM) | 200 (≈ 325 µM) | 1.55 (≈ 2.52 µM) | 25 (≈ 40.7 µM) | 50 (≈ 81.3 µM) | > 100 | 6.25 (≈ 10.2 µM) | > 100 |  |
| NC[C@@H]1O[C@H](O[C@H]2[C@@H](O)[C@H](O[C@@H]3[C@@H](O)[C@H](N)C[C@H](N)[C@H]3O[C@H]3O[C@H](CO)[C@@H](O)[C@H](O)[C@H]3N)O[C@@H]2CO)[C@H](N)[C@@H](O)[C@@H]1O [Paromomycin (1), paromomycin] | 12.5 (≈ 20.3 µM) | > 100 | 25 (≈ 40.6 µM) | > 100 | > 100 | 50 (≈ 81.2 µM) | > 200 | > 100 | > 100 | > 100 | > 100 | 200 (≈ 325 µM) | 1.55 (≈ 2.52 µM) | 25 (≈ 40.6 µM) | > 100 | > 100 | 12.5 (≈ 20.3 µM) | > 100 |  |
| NC[C@@H]1C[C@H](O)[C@@H](N)[C@@H](O[C@H]2[C@H](O[C@@H]3O[C@H](CO)[C@@H](O[C@H]4O[C@@H](CN)[C@@H](O)[C@H](O)[C@H]4N)[C@H]3O)[C@@H](O)[C@H](N)C[C@@H]2N)O1 [compound 8, 4'-deoxyneomycin B] | 3.12 (≈ 5.21 µM) |  |  |  |  |  | > 200 |  | > 100 |  |  | 25 (≈ 41.8 µM) |  |  |  |  |  |  | MIC (P. aeruginosa B; P. aeruginosa B, agar dilution, read-out: MIC): 25 µg/mL (≈ 41.8 µM); MIC (Proteus mirabilis 525; Proteus mirabilis 525, agar dilution, read-out: MIC): 6.2 µg/mL (≈ 10.4 µM); MIC (P. aeruginosa 6; P. aeruginosa 6, agar dilution, read-out: MIC): 12.5 µg/mL (≈ 20.9 µM); MIC (P. aeruginosa 5; P. aeruginosa 5, agar dilution, read-out: MIC): 25 µg/mL (≈ 41.8 µM); MIC (Proteus vulgaris; agar dilution, read-out: MIC): 12.5 µg/mL (≈ 20.9 µM); MIC (P. aeruginosa 47823; P. aeruginosa 47823, agar dilution, read-out: MIC): 12.5 µg/mL (≈ 20.9 µM); MIC (P. aeruginosa 4; P. aeruginosa 4, agar dilution, read-out: MIC): 12.5 µg/mL (≈ 20.9 µM); MIC ([2]; Pseudomonas aeruginosa 9229, agar dilution, read-out: MIC): 25 µg/mL (≈ 41.8 µM); MIC ([4]; Staphylococcus aureus 209 P, agar dilution, read-out: MIC): 0.77 µg/mL (≈ 1.29 µM); MIC (P. mirabilis V 15; P. mirabilis V 15, agar dilution, read-out: MIC): 12.5 µg/mL (≈ 20.9 µM); MIC (P. aeruginosa 19660; P. aeruginosa 19660, agar dilution, read-out: MIC): 25 µg/mL (≈ 41.8 µM); MIC (P. aeruginosa 53585; P. aeruginosa 53585, agar dilution, read-out: MIC): 25 µg/mL (≈ 41.8 µM); MIC (Escherichia coli K 12; Escherichia coli K 12, agar dilution, read-out: MIC): 3.12 µg/mL (≈ 5.21 µM); MIC (P. aeruginosa 53825; P. aeruginosa 53825, agar dilution, read-out: MIC): 50 µg/mL (≈ 83.5 µM); antibacterial "in vitro" activity (bacterial strains; listed as 4'-Deoxy-neomycin B (8)): higher and broader when compared with those of neomycin B and paromomycin (1); antibacterial "in vitro" activity (bacterial strains; listed as 4'-deoxy-neomycin B (8)): higher and broader when compared with that of neomycin B |

Reference: US4247687A, “Aminoglycoside antibiotic derivatives and process for their preparation” (Farmitalia Carlo Erba S.p.A., priority 1979, dated 1981)
